Experiments:
[1] = test system: adults and nymphal stages of the two-spotted mite; experiment: Mite Foliage Spray Test; type: in vivo, Tetranychus urticae (Koch); set-up: key: 1: no mortality; 3: an approximately 50% mortality; 5: 100% mortality; settings: 4 days
Text: (§1) The test procedures were as follows:
(§2) Compositions were rated on the basis of percent kill with a rating of 1 indicating no mortality; 3 signifying an approximately 50% mortality and 5 indicating 100% mortality at the indicated dosage.

[2] = test system: egg of the two-spotted mite; experiment: Mite Ovicide Test; type: in vivo, Tetranychus urticae (Koch); set-up: key to Mite Ova rating: 1: no mortality; 3: an approximately 50% mortality; 5: 100% mortality; settings: spray on eggs, 4 days
Text: as §1
The plants were allowed to dry thoroughly.
as §2

[3] = test system: Perennial rye grass, crabgrass, red root pigweed, mustard; experiment: Preliminary Herbicide Seed Germination Test; settings: each rated 1 (no injury) to 5 (no seedlings emerged)
Text: The thus-prepared stock suspension contained 0.5 percent by weight of compound. The test concentrations employed in the tests described hereinbelow were obtained by diluting the stock suspension with water. The test procedures were as follows:
The following seeds were used in this test:
Crabgrass -- Digitaria san-
Mustard -- Brassica pincea var.
Each of above mixtures is rolled separately in 5 gallon containers for approximately one-half hour on ball mill to insure uniform mixing of seeds and soil. For each compound four 3-inch pots are filled with soil to within 11/2 inches of top of pots. To 2 of these pots are added 70 cc. of Mixture I. To the remaining 2 pots are added 70 cc. of Mixture II. The seed-soil mixture is tamped firmly, and the pots are removed to the greenhouse and watered lightly. About 2 hours after planting, 25 milliliters of the test formulation were added to each of 2 pots for each soil-seed mixture; i.e., one replicate of each seed mixture per concentration. An equal volume of a water solution containing acetone and an emulsifier in the same concentration as the herbicidal mixture but without the candidate herbicide is also added to each of the soil-seed mixtures. These pots are used as check or control units. The test compounds are formulated by standard procedure of solution in acetone, addition of an emulsifier, and dilution with water. Tests were conducted on all compositions at low concentration (100 ppm.). Certain compositions were also tested at high concentration (1000 ppm). The pots were held in the greenhouse and watered lightly until results were taken. Ten to twelve days after application of chemical, injury is noted for each species by comparing treated vs. untreated pots. Ratings are made at both the high and the low concentrations (1000 ppm and 100 ppm) according to the following designations:
4 = few seedlings emerged and/or very severe stunting
3 = moderate reduction in stand and/or moderate stunting
2 = very slight reduction in stand and/or slight stunting
1 = no injury; seedlings appear no different with respect to stand or growth than untreated controls
Accordingly, the maximum rating for one test seed species tested at both high and low concentration is 10 and the maximum possible total preemergence rating is 40 (10 for each of the four test seed species). […] In some tests the crabgrass experiment was omitted. In these tests the maximum total rating for species tested at both high and low concentrations is 30 and 15 for species tested only at low concentrations.

[4] = rating/maximum 40: 100 and 1000 ppm, four species, 10-12 days
[5] = rating/maximum 20: 100 ppm only, four species
[6] = rating/maximum 15: 100 ppm only, crabgrass omitted

| Compound | Mite Adult rating [1] | Mite Ova rating [2] | Herbicide (total preemergence rating) [3, 4] | Herbicide (total preemergence rating) [3, 5] | Herbicide (total preemergence rating) [3, 6] |
| --- | --- | --- | --- | --- | --- |
| 2-(2',6'-Dichlorophenyl)-4(7)-methyl-3-(pivaloxyloxy)indone | 1 | 3 (an approximately 50% mortality) | 20/40 |  |  |
| 2-(2',6'-Dichlorophenyl)-5(6)-methyl-3-(pivaloyloxy)indone | 5 (100% mortality) | 5 (100% mortality) | 24/40 |  |  |
| 2-(2'-Methoxyphenyl)-3-(neodecanoyloxy)indone | 1 | 1 |  | 4/20 |  |
| 3-(Acetoxy)-4(7)-methyl-2-(2',6'-dichlorophenyl)indone | 5 (100% mortality) | 5 (100% mortality) | 37/40 |  |  |
| CC(C)c1cccc(C(C)C)c1C1=C(OC(=O)C(C)(C)C)c2ccccc2C1=O [2-(2'6'-diisopropyl)phenyl-3-pivaloyloxyindone] | 1 | 1 |  |  | 3/15 |
| Cc1cc(C)c(C2=C(OC(=O)COc3ccc(Cl)cc3Cl)c3ccccc3C2=O)c(C)c1 [2-(2',4',6'-Trimethylphenyl)-3-(2,4-dichlorophenoxyacetoxy)indone] | 5 (100% mortality) | 5 (100% mortality) |  | 20/20 |  |
| CNC(=O)N(C)C(=O)OC1=C(c2c(C)cc(C)cc2C)C(=O)c2ccccc21 [2-(2',4',6'-Trimethylphenyl)-3-(2,4-dimethylallophanoyloxy)indone] | 1 | 5 (100% mortality) |  | 16/20 |  |
| Cc1cc(C)c(C2=C(OC(=O)c3ccco3)c3ccccc3C2=O)c(C)c1 [2-(2',4',6'-Trimethylphenyl)-3-(2-furoyloxy)indone] | 5 (100% mortality) | 5 (100% mortality) |  | 17/20 |  |
| Cc1cc(C)c(C2=C(OC(=O)c3cccs3)c3ccccc3C2=O)c(C)c1 [2-(2',4',6'-Trimethylphenyl)-3-(2-thenoyloxy)indone] | 5 (100% mortality) | 5 (100% mortality) |  | 18/20 |  |
| Cc1cc(C)c(C2=C(OC(=O)c3cccnc3)c3ccccc3C2=O)c(C)c1 [2-(2',4',6'-Trimethylphenyl)-3-(3-pyridinecarbonyloxy)indone] | 5 (100% mortality) | 5 (100% mortality) |  | 18/20 |  |
| Cc1cc(C)c(C2=C(OC(=O)N3CCOCC3)c3ccccc3C2=O)c(C)c1 [2-(2',4',6'-Trimethylphenyl)-3-(4-(morpholino)carbonyloxy)indone] | 3 (an approximately 50% mortality) | 5 (100% mortality) |  | 4/20 |  |
| Cc1cc(C)c(C2=C(OC(=O)Oc3ccc(Cl)cc3)c3ccccc3C2=O)c(C)c1 [2-(2',4',6'-Trimethylphenyl)-3-(4-chlorophenyloxycarbonyloxy)indone] | 5 (100% mortality) | 5 (100% mortality) |  | 19/20 |  |
| CCCCN(CCCC)C(=O)OC1=C(c2c(C)cc(C)cc2C)C(=O)c2ccccc21 [2-(2',4',6'-Trimethylphenyl)-3-(N,N-di(butyl)carbamoyloxy)indone] | 3 (an approximately 50% mortality) | 1 |  | 10/20 |  |
| Cc1cc(C)c(NC(=O)OC2=C(c3c(C)cc(C)cc3C)C(=O)c3ccccc32)c(C)c1 [2-(2',4',6'-Trimethylphenyl)-3-(N-(2,4,6-Trimethylphenyl)-carbamoyloxy)indone] | 5 (100% mortality) | 5 (100% mortality) |  | 4/20 |  |
| Cc1cc(C)c(C2=C(OC(=O)NC(C)(C)C)c3ccccc3C2=O)c(C)c1 [2-(2',4',6'-Trimethylphenyl)-3-(N-(t-butyl)carbamoyloxy)indone] | 5 (100% mortality) | 5 (100% mortality) |  | 15/20 |  |
| CCCCN(C)C(=O)OC1=C(c2c(C)cc(C)cc2C)C(=O)c2ccccc21 [2-(2',4',6'-Trimethylphenyl)-3-(N-butyl-N-methylcarbamoyloxy)indone] | 1 | 1 |  | 4/20 |  |
| Cc1cc(C)c(C2=C(OC(=O)N(C)C3CCCCC3)c3ccccc3C2=O)c(C)c1 [2-(2',4',6'-Trimethylphenyl)-3-(N-cyclohexyl-N-methylcarbamoyloxy)indone] | 5 (100% mortality) | 5 (100% mortality) |  | 16/20 |  |

| Compound | Mite Adult rating [1] | Mite Ova rating [2] | Herbicide (total preemergence rating) [3, 4] | Herbicide (total preemergence rating) [3, 5] | Herbicide (total preemergence rating) [3, 6] |
| --- | --- | --- | --- | --- | --- |
| Cc1cc(C)c(C2=C(OC(=O)N(C)c3ccccc3)c3ccccc3C2=O)c(C)c1 [2-(2',4',6'-Trimethylphenyl)-3-(N-methyl-N-phenylcarbamoyloxy)indone] | 1 | 3 (an approximately 50% mortality) |  | 10/20 |  |
| CCCC(=O)OC1=C(c2c(C)cc(C)cc2C)C(=O)c2ccccc21 [2-(2',4',6'-Trimethylphenyl)-3-(butyryloxy)indone] | 5 (100% mortality) | 5 (100% mortality) |  |  | 15/15 |
| Cc1cc(C)c(C2=C(OC(=O)Cl)c3ccccc3C2=O)c(C)c1 [2-(2',4',6'-Trimethylphenyl)-3-(chlorocarbonyloxy)indone] | 5 (100% mortality) | 5 (100% mortality) |  | 13/20 |  |
| Cc1cc(C)c(C2=C(OC(=O)N(C)C)c3ccccc3C2=O)c(C)c1 [2-(2',4',6'-Trimethylphenyl)-3-(dimethylcarbamoyloxy)indone] | 3 (an approximately 50% mortality) | 5 (100% mortality) |  | 14/20 |  |
| CCCCCCCCCCCC(=O)OC1=C(c2c(C)cc(C)cc2C)C(=O)c2ccccc21 [2-(2',4',6'-Trimethylphenyl)-3-(dodecanoyloxy)indone] | 5 (100% mortality) | 5 (100% mortality) |  | 17/20 |  |
| CSCC(=O)OC1=C(c2c(C)cc(C)cc2C)C(=O)c2ccccc21 [2-(2',4',6'-Trimethylphenyl)-3-(methylthioacetoxy)indone] | 5 (100% mortality) | 5 (100% mortality) |  | 19/20 |  |
| CCCCCCCCCCCCCCCCCCOC(=O)OC1=C(c2c(C)cc(C)cc2C)C(=O)c2ccccc21 [2-(2',4',6'-Trimethylphenyl)-3-(octadecyloxycarbonyloxy)indone] | 5 (100% mortality) | 5 (100% mortality) |  |  | 13/15 |
| CCCCCCCCOC(=O)OC1=C(c2c(C)cc(C)cc2C)C(=O)c2ccccc21 [2-(2',4',6'-Trimethylphenyl)-3-(octyloxycarbonyloxy)indone] | 5 (100% mortality) | 5 (100% mortality) |  | 16/20 |  |
| CCCCC(=O)OC1=C(c2c(C)cc(C)cc2C)C(=O)c2ccccc21 [2-(2',4',6'-Trimethylphenyl)-3-(pentanoyloxy)indone] | 5 (100% mortality) | 5 (100% mortality) |  |  | 15/15 |
| Cc1cc(C)c(C2=C(OC(=O)Cc3ccccc3)c3ccccc3C2=O)c(C)c1 [2-(2',4',6'-Trimethylphenyl)-3-(phenylacetoxy)indone] | 5 (100% mortality) | 5 (100% mortality) |  | 19/20 |  |
| Cc1cc(C)c(C2=C(OC(=O)N3CCCCC3)c3ccccc3C2=O)c(C)c1 [2-(2',4',6'-Trimethylphenyl)-3-(piperdinocarbonyloxy)indone] | 1 | 3 (an approximately 50% mortality) |  | 4/20 |  |
| CCCC(C)C(=O)OC1=C(c2ccc(C)cc2C)C(=O)c2ccccc21 (centres unmarked) [2-(2',4'-Dimethylphenyl)-3-(2-methylpentanoyloxy)indone] | 3 (an approximately 50% mortality) | 5 (100% mortality) |  | 14/20 |  |
| CCCCCCCCCCCC(=O)OC1=C(c2ccc(C)cc2C)C(=O)c2ccccc21 [2-(2',4'-Dimethylphenyl)-3-(lauroyloxy)indone] | 5 (100% mortality) | 5 (100% mortality) |  | 14/20 |  |
| CCCCCCCCCCCCCCCCCC(=O)OC1=C(c2ccc(C)cc2C)C(=O)c2ccccc21 [2-(2',4'-Dimethylphenyl)-3-(stearoyloxy)indone] | 3 (an approximately 50% mortality) | 5 (100% mortality) |  | 14/20 |  |
| CCC(CC)C(=O)OC1=C(c2cc(C)ccc2C)C(=O)c2ccccc21 [2-(2',5'-Dimethylphenyl)-3-(2-ethylbutanoyloxy)indone] | 3 (an approximately 50% mortality) | 5 (100% mortality) |  | 4/20 |  |
| CC(C)c1ccccc1C1=C(OC(=O)C(C)(C)C)c2ccccc2C1=O [2-(2'-isopropylphenyl)-3-pivaloyloxyindone] | 1 |  |  | 4/20 |  |

— patent US4091006A, “Esters of 3-hydroxyindone compounds” (priority 1975, dated 1978)
